Assay results reported in patent EP4778516A1, “CALCIFICATION ENHANCER FOR OSTEOBLAST MC3T3-E1 CELL” (Watanabe Oyster Laboratory Co., Ltd., priority 2023, dated 2025).
Like-named read-outs stand apart in the source and are kept apart here.

Assays:
[1] = cited from earlier work; for peroxyl radical scavenging activity relative to Trolox: greater than Trolox
MC3T3-E1 cells [2] = assay: Effects of conditioned medium of LPS-stimulated RAW264.7 cells on MC3T3-E1 cells; format: cell-based, mouse
Description: A conditioned medium was obtained by culturing RAW264.7 cells.
RAW264.7 cells (1×10^5 cells/ml per well in a 24-well plate) were cultured for 3 days after reaching subconfluence in DMEM containing 10% FBS and 1% P/S in the presence or absence of LPS (concentration in the medium: 100 ng/ml). After the cells were cultured, the medium (conditioned medium) was collected.
To evaluate the effects of the conditioned medium on proliferation of MC3T3-E1 cells, MC3T3-E1 cells were cultured for 3 days in a-MEM containing 10% FBS and 1% P/S. The cells were then cultured for 3 days using either the conditioned medium (1 ml, control) cultured without LPS or the conditioned medium (0.25 or 0.50 ml per well, adjusted to 1 ml with normal medium) cultured with LPS in the presence or absence of DHMBA (1 or 10 mM).
Further, to examine the effects on cell death of MC3T3-E1 cells, the cells (1×10^5 cells/ml per well) were cultured for 3 days in a-MEM containing 10% FBS and 1% P/S. After reaching subconfluence, the medium was replaced. The cells were then further cultured for 48 hours in either the normal medium, the conditioned medium (1 ml) cultured without LPS, or the conditioned medium (0.25 or 0.50 ml per well, adjusted to 1 ml with normal medium) with either a reagent vehicle (1% ethanol as final concentration) or DHMBA (1 or 10 mM). After culture, the cells were detached from each culture well, and cell numbers were counted in the same manner as described above.
Further, the effects of Bay 11-7082, which is an NF-kB signaling inhibitor, on proliferation or cell death of MC3T3-E1 cells were investigated. First, to examine the effects of Bay 11-7082 on proliferation of MC3T3-E1 cells, the cells (1×10^5 cells/1 ml per well in a 24-well plate) were cultured for 3 days until reaching subconfluence in the presence of 10% FBS, 1% P/S, and either a reagent vehicle (1% ethanol as final concentration) or Bay 11-7082 (1, 10, 50, 100, or 1000 nM). Next, MC3T3-E1 cells were cultured for 3 days in the presence of the conditioned medium (0.5 ml per well, adjusted to a total of 1 ml with normal medium) with or without Bay 11-7082 (1 or 10 nM) in the presence or absence of DHMBA (10 mM).
In another experiment, to evaluate the effects of Bay 11-7082 on cell death of MC3T3-E1, the cells (1×10^5 cells/1 ml per well in a 24-well plate) were cultured in a-MEM containing 10% FBS and 1% P/S. After culturing for 3 days until reaching subconfluence, the medium was replaced with a-MEM (1 ml) containing either the normal medium or the conditioned medium prepared by adding the normal medium to 0.5 ml per well of the conditioned medium, adjusted to a total volume of 1 ml. The cells were then further cultured for 48 hours in the presence of Bay 11-7082 (1 or 10 nM), or Bay 11-7082 (10 nM) in combination with DHMBA (10 mM). After culture, the cells were detached from each culture well, and cell numbers were counted as described above.

RAW264.7 cells = assay: TNF-a production assay (ELISA); format: cell-based, mouse; conditions: LPS 10 or 100 ng/ml, DHMBA 1 or 10 mM; Fig. 7A
Description: RAW264.7 cells (1× 10^5/ml per well) were cultured in DMEM containing 10% FBS and 1% P/S in a 24-well plate for 3 days until reaching subconfluence. […] The cells were detached from each culture dish to count the cell numbers as described in the section "Cell proliferation assay". […] The concentration of TNF-a in the medium was analyzed using a mouse TNF-a ELISA kit (catalog no. KHC301) purchased from Cayman Chemical Company (Ann Arbor, MI, USA) in accordance with the manufacturer's instructions. TNF-a production was expressed as the amount of TNF-a secreted into the medium in picograms per milliliter (pg/ml).

MC3T3-E1 cells [3] = assay: Crosstalk (Transwell co-culture) between MC3T3-E1 cells and RAW264.7 cells; format: cell-based, mouse; conditions: DHMBA 1 or 10 mM
Description: To investigate crosstalk between osteoblast MC3T3-E1 cells and macrophage RAW264.7 cells, an assay was performed using Transwell chambers (Corning Inc., Life Sciences, catalog no. CLS3464-48EA, USA) equipped with a polycarbonate filter (pore size […], diameter 6.5 mm). MC3T3-E1 cells (1×10^5 cells per 1 ml medium) were added in a-MEM medium (1 ml) containing 10% FBS and 1% P/S in the lower chamber. RAW264.7 cells were suspended in DMEM containing 10% FBS and 1% P/S, and 0.5 ml of the suspension (5×10^4 cells/ml medium) was added to the upper chamber of each Transwell. RAW264.7 cells were incubated at 37°C for 1 hour under 5% CO2 and 95% air to allow attachment to the upper chamber. The plates equipped with the Transwell chambers were then placed in an incubator at 37°C under 5% CO2 and 95% air. To induce inflammatory conditions in RAW264.7 cells, LPS (100 ng/ml medium) was added to the upper chamber containing RAW264.7 cells. […] MC3T3-E1 cells attached to the dishes (wells) were counted as described in the section "Cell proliferation assay". […]
Thereafter, a Transwell chamber was placed in each culture well, and RAW264.7 cells were added to the upper chamber at 0.5 ml (5×10^4 cells/ml medium), in the presence or absence of LPS (100 ng/ml medium). […] Cells attached to the dishes (wells) were counted as described in the section "Cell proliferation assay".

COc1c(O)cc(CO)cc1O [DHMBA, 3,5-dihydroxy-4-methoxybenzyl alcohol]
reaction with HOO(•) ([1]; compared with other known antioxidants such as resveratrol and ascorbic acid): more rapidly
peroxyl radical scavenging activity relative to Trolox ([1]; in aqueous media): four orders of magnitude
peroxyl radical scavenging activity relative to Trolox ([1]; in lipid media): approximately 15 fold
suppressive effect of DHMBA on conditioned-medium-induced suppression of proliferation, in combination with Bay 11-7082 (MC3T3-E1 cells [2]; DHMBA in the presence of Bay 11-7082): not further enhanced
enhancement of death of MC3T3-E1 cells by the conditioned medium (MC3T3-E1 cells [2]; conditioned medium 0.5 ml, DHMBA 1 or 10 mM, 48 hours, Fig. 6B): suppressed
inhibition of proliferation of MC3T3-E1 cells by the conditioned medium (MC3T3-E1 cells [2]; conditioned medium with LPS stimulation, DHMBA 1 or 10 mM, 3 days, Fig. 6A): prevented
LPS-induced increase of production of TNF-a in RAW264.7 cells (RAW264.7 cells): suppressed
decrease of proliferation of MC3T3-E1 cells by co-culture with RAW264.7 cells (MC3T3-E1 cells [3]; LPS 100 ng/ml in upper chamber, 3 days, Fig. 5C): suppressed
enhancement of death of MC3T3-E1 cells by co-culture with RAW264.7 cells (MC3T3-E1 cells [3]; LPS 100 ng/ml, 48 hours, Fig. 5D): prevented
